Three molecules from publication PMC9974488, “Probing coenzyme A homeostasis with semisynthetic biosensors” (Nature Chemical Biology, 2022) can be followed below.

Test [1] deals with T1, pantothenate kinase (ecPanK) (Escherichia coli, UniProt P0A6I3, D127A/F252Y/L277W).
T1 construct: gene coaA; ecPanK D127A,F252Y,L277W
The experiment in a line: fluorescence polarization. In kind it is binding. On the technique in general: Fluorescence polarisation rises when a labelled molecule tumbles more slowly, as on binding a larger partner.

In test [2] the target is T2, pantothenate kinase (ecPanK) (Escherichia coli, UniProt P0A6I3).
T2 construct: gene coaA; ecPanK WT, N-terminal Strep-tag, C-terminal Hisx10
T2 sequence (P0A6I3 1-316): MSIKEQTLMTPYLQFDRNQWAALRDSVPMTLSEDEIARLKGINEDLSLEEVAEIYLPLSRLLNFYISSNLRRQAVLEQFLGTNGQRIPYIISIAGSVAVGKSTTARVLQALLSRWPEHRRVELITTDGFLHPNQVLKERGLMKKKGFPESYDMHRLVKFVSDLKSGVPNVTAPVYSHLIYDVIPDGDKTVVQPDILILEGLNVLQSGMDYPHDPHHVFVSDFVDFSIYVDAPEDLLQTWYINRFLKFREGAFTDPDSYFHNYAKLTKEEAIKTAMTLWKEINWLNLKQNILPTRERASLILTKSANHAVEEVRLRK
The test can be described thus: fluorescence polarization, purified protein titrated against […] TMR-TAZ. Type of test: binding.

For test [3], the target named is T2, pantothenate kinase (ecPanK). The test can be described thus: biochemical. The arrangement: fluorescence polarization competition against 50 nM TMR-TAZ with 20 uM ecPanK, half-maximal c50. The procedure: The binding affinity (c50) of different ecPanKs for CoA and AcCoA were determined by a fluorescence polarization competition assay against TMR-TAZ. 50 nM TMR-TAZ and 20 μM ecPanKs, except ecPanK^D127A,F252Y,L277W (100 μM), were titrated against CoA or AcCoA concentrations ranging from 64 nM to 5 mM in PBS supplemented with 0.5 mg ml^−1 BSA and 50 mM HEPES. Assays were performed in non-binding black 96-well plates with a final volume of 50 μl with excitation at 520 nm (bandwidth 20 nm) and emission 600 nm (bandwidth 20 nm). Obtained FP values were averaged and fitted to equation (4) to estimate the c50 values using OriginPro 2021.4 FP=FP0+FPs−FP0/1+c50/[L] Where FP0 is the fluorescence polarization of the fluorophore with ecPanKs in the absence of CoA or AcCoA (bound fluorophore), FPs is the fluorescence polarization of the fluorophore in the presence of CoA or AcCoA (free fluorophore) c50 is the half-maximal effective concentration, and [L] is the concentration of CoA or AcCoA. […] Representative in-gel fluorescence scan after SDS-PAGE (n = 3 independent experiments) of Halo-SiR labeled sensor proteins, Lane 1: protein marker, lane 2: CoA-Snifit^V97T, lane 3: CoA-Snifit^G41, lane 4: CoA-Snifit^G41S, lane 5: CoA-Snifit^G41N. c. […] Fluorescence polarization responses (FP, mean ± s.d., n = 3 independent replicates) of 50 nM TMR-TAZ as a function of ecPanK^WT concentration in PBS. e. […]

Test [4] shares this target. The experiment in a line: fluorescence polarization competition against TMR-TAZ. In kind it is binding.

Turning to `CC(NC(=O)c1ccccc1C(F)(F)F)c1nnc(SCc2ccc(F)cc2)n1Cc1ccc(COC(=O)NCCOCCOCCNC(=O)c2ccc(C(=O)O)c(-c3c4ccc(=[N+](C)C)cc-4oc4cc(N(C)C)ccc34)c2)nc1` (centres unmarked) [compound 1, TMR-TAZ], the values for the Kd in test [1] and in test [2] were 21.6 ± 3.7 µM and 1.2 ± 0.2 µM, respectively.

For `CC(C)(COP(=O)(O)OP(=O)(O)OC[C@H]1O[C@@H](n2cnc3c(N)ncnc32)[C@H](O)[C@@H]1OP(=O)(O)O)[C@@H](O)C(=O)NCCC(=O)NCCS` [Coenzyme A], the IC50 (in general, the concentration at which inhibition is half-maximal) in test [3] worked out at 214 ± 19.2 µM. For the same molecule, the “fluorescence polarization competition against TMR-TAZ” value in test [4] is reported as “CoA competes with TMR-TAZ for binding to ecPanK (Extended Data Fig. 1e)”.

In the case of `CC(=O)SCCNC(=O)CCNC(=O)[C@H](O)C(C)(C)COP(=O)(O)OP(=O)(O)OC[C@H]1O[C@@H](n2cnc3c(N)ncnc32)[C@H](O)[C@@H]1OP(=O)(O)O` [acetyl-CoA], the IC50 in test [3] was found to be 1420 ± 315 µM.
